Results on one molecule are retold here after patent US10017468B2, “Substituted pyrrolidines as G-protein coupled receptor 43 agonists” (Ogeda SA, priority 2009, dated 2018).

For this test, the system named is ob/ob mice. As to the kind of experiment: Oral glucose tolerance test (OGTT) in ob/ob mice. To be noted: bi-daily 50 mg/kg during 28 days, AUC from -15 to 120 min. The test is classed as in vivo. The procedure: Ob/ob or obese mice are leptin-deficient mice that eat excessively and become profoundly obese, hyperinsulinemic and hyperglycemic. It is an animal model of type II diabetes. Such model can be used for oral glucose tolerance tests (OGTTs). A total of sixteen (16) male ob/ob mice (6 weeks of age) were obtained from Harlan. Upon arrival to the animal unit, mice were housed 4 per cage in rodent cages mounted with feeders containing regular chow. The mice were put in a 12/12 h light-dark cycle (light from 0600-1800 h) with controlled temperature conditions (22-24° C.). Fed blood glucose and body-weight was measured on day −2 in the morning between 08:00 AM and 09:00 AM. Animals were randomized into 2 groups according to fed glucose levels (on day −2). […]
Day 1 is the first day of dosing. […] At −15 min, blood glucose was measured (using a glucose analyzer) and animals were dosed with compounds of the invention or vehicle. At time point 0, blood glucose was measured again and glucose was administered by oral gavage (1 g/kg glucose). The blood glucose was then measured at time points 15, 30, 45, 60 and 120 minutes. […] The percentages of AUC inhibition induced by compounds of the invention were calculated as follows: % of AUC inhibition: [1−(AUC compound/AUC vehicule)]*100.

Take `COc1ccccc1-c1ccc(C(=O)N2[C@@H](c3ccccc3Cl)CC[C@H]2C(=O)O)cc1` [Compound 1, (2S,5R)-5-(2-chlorophenyl)-1-(2′-methoxy-[1,1′-biphenyl]-4-carbonyl)pyrrolidine-2-carboxylic acid]: the “% of AUC inhibition (blood glucose, OGTT)” value turned out to be 40%.
